Patent publication US20050054680A1, “Agonists and antagonists of 5h3-like receptors of invertebrates as pesticides” (priority 2001, published 2005)
“Also recorded” adds a separate entry of the source. Like-named read-outs stand apart in the source and are kept apart here.

Columns and labels:
[1] = system: C. elegans of the Bristol N2 strain; assay: Automated feeding assay (bead ingestion, pharyngeal pumping); format: in vivo, Caenorhabditis elegans; conditions: for Effect of 0.325 mM compound on serotonin-stimulated (0.325 mM) bead ingestion: 0.325 mM compound plus 0.325 mM serotonin; for Effect of 0.325 mM compound on bead ingestion: no added serotonin
Source text: An automated screening assay has been developed and described in the present Applicants' co-pending International patent application No. PCT/AU00/01476 (WO 01/40500). Using the screening assay, twenty novel tropanyl ester compounds as well as tropanyl dichlorobenzoate were screened for nematicidal activity.
The assay used was essentially that described in WO 01/40500 with minor modifications. The protocol was as follows:
(1.) Plate Culture. C. elegans of the Bristol N2 strain (Brenner, 1974) were cultured at room temperature on HMS174 E. coli bacteria (Campbell et al., 1978) spread on a 150 mm diameter petri dish containing enhanced NGM 1.7% (w/v) (Avery and Horvitz, 1990) agar until a good population of adult nematodes was present, but food reserves had not been exhausted.
(2.) The nematodes were collected by washing each plate with 10 mL and then 5 mL of M9 buffer plate and filtering over a 20 μm nylon mesh (Nytal—Catalogue no. BCNY-HDO02-20) to retain adult nematodes. The nematodes from 7-8 of these 150 mm plates were collected together and placed on a 63 μm mesh filter (Nytal—product code PA-25-43) and washed with 200-250 mL of M9 buffer or MilliQ water. This procedure allows the passage of nematodes whilst retaining larger debris. Finally the nematodes were collected over a 20 μm mesh.
(3.) Adult nematodes were collected from the mesh using a pasteur pipette and allowed to settle in an eppendorf tube at 1×g for 10 minutes. This packed volume was used to calculate quantities of nematodes for experiments and assays, although nematodes were resuspended in 2-10 volumes of M9 buffer for transfer. Quantitative transfers of nematodes were performed using a Gilson Pipetman P200 or equivalent and a yellow tip with 5 mm cut off the sharp end.
(4.) Assays were performed in 24 well tissue-lture clusters (Nunc multidish). The final assay volume was 230 μL comprising the following sequential additions: • (i) M9 buffer—sufficient to bring the final volume to 230 μL • ([…]) Any other pharmacological agents—≦1.5 μL of drug in DMSO (or water) • (iv) Nematodes—150 μL of a 10% (v/v) stock in M9 • (v) Fluorescent beads—23 μL of a 1% w/v solution in M9.
Where serotonin or other pharmacological agents were omitted, the volume was adjusted with M9 buffer. Control experiments included 1.5 μL of DMSO except in the case of ondansetron, which was added from an aqueous stock.
The fluorescent beads were 1.30 μm uniformly dyed microsphere beads with a hydrophilic surface-coating. The fluorescence excitation maximum was 420 nm and the emission maximum was 485 nm (catalogue code FC04F, carboxylate-modified polystyrene/polyvinyl copolymer, manufactured and supplied by Bangs Laboratories, Inc. 9025 Technology Drive, Fishers, INDIANA 46038-2886, USA).
(5.) The nematodes were incubated for 60 minutes after the addition of the fluorescent beads at room temperature (≈21° C.) without shaking. The assay was terminated by the addition of 20 μL of 100 mM sodium azide.
(6.) Two aliquots of 100 μl each were transferred from each well of the 24 well cluster to a pair of wells in a pre-blocked mesh-bottomed plate (see below for details of the mesh-bottomed plate) and the buffer/bead suspension was immediately aspirated away through the filter mesh using a Millipore Multiscreen vacuum manifold.
(7.) A total of eight washing steps were performed. Each of the first five washes used 200 μL of 1%(w/v) sodium lauryl sulphate (SDS—Sigma) in M9 buffer. The third and fifth washes involved pipetting the solution up and down in the wells of the plate ten times each wash. The SDS washes were followed by three washes with 200 μL of M9 buffer only. At the end of each washing step, solutions were aspirated away through the mesh using a Millipore Multiscreen vacuum manifold. […]

[2] = system: nematode C. elegans; conditions: cited from earlier work
[3] = in the presence of 1 mM serotonin, estimated from log dose response curves (FIG. 2)

Compound	Effect of 0.325 mM compound on serotonin-stimulated (0.325 mM) bead ingestion [1]	Effect of 0.325 mM compound on bead ingestion [1]	further results
CN1[C@@H]2CC[C@H]1CC(OC(=O)c1c(F)cccc1F)C2 (stereo partly drawn) [DCP-45227 (7), 2,6-difluoro-benzoic acid tropan-3-yl ester]	reverses marginally	no effect	–
CN1[C@@H]2CC[C@H]1CC(OC(=O)C1CC1)C2 (stereo partly drawn) [DCP-45233 (13), cyclopropanecarboxylic acid tropan-3-yl ester]	potentiates marginally	no effect	–
CN1[C@@H]2CC[C@H]1CC(OC(=O)c1ccc(Cl)cc1)C2 (stereo partly drawn) [DCP-45225 (5), 4-chloro-benzoic acid tropan-3-yl ester]	no effect	no effect	–
Cc1[nH]c2ccc(O)cc2c1CCN.Cl [2-methyl-5-hydroxytryptamine, 2-methyl-5-hydroxytryptamine hydrochloride]	–	–	Effect on locomotion ([2]; 3 mM): did not inhibit locomotion; Effect on pharyngeal pumping ([2]; 3 mM): strongly stimulated; Effect on pharyngeal pumping ([2]; as summarised in the background, no concentration given): strongly and specifically stimulated
CN1[C@@H]2CC[C@H]1CC(OC(=O)c1ccccc1)C2 (stereo partly drawn) [DCP-45221 (1), benzoic acid tropan-3-yl ester]	potentiates marginally	stimulates marginally	–
COC(=O)c1cccc(C(=O)OC2C[C@H]3CC[C@@H](C2)N3C)c1 (stereo partly drawn) [DCP-45237 (17), isophthalic acid methyl ester tropan-3-yl ester]	no effect	no effect	–
COC(=O)c1cncc(C(=O)OC2C[C@H]3CC[C@@H](C2)N3C)c1 (stereo partly drawn) [DCP-45239 (19), pyridine-3,5-dicarboxylic acid methyl ester tropan-3-yl ester]	potentiates marginally	no effect	–
CN1[C@@H]2CC[C@H]1CC(OC(=O)c1cccc(Cl)c1)C2 (stereo partly drawn) [DCP-45224 (4), 3-chloro-benzoic acid tropan-3-yl ester]	strongly reversed; also recorded: reverses strongly	no effect	IC50 (inhibitory concentration 50%) for bead ingestion [1, 3]: impossible to estimate
CN1[C@@H]2CC[C@H]1CC(OC(=O)c1cccc(CCl)c1)C2 (stereo partly drawn) [DCP-45223 (3), 3-chloromethyl-benzoic acid tropan-3-yl ester]	no effect	no effect	–
CN1[C@@H]2CC[C@H]1CC(OC(=O)c1ccc(Cl)c(Cl)c1)C2 (stereo partly drawn) [DCP-45228 (8), 3,4-dichloro-benzoic acid tropan-3-yl ester]	strongly reversed; also recorded: reverses strongly	reduced; also recorded: inhibits	Implied IC50 without serotonin (extrapolated from IC50 ratio, not measured) ([1]; Caenorhabditis elegans, in the absence of added serotonin, implied from the tropanyl dichlorobenzoate IC50 ratio with and without serotonin, read-out: IC50 and therefore chronic EC50 implied from differential factor): ~6 µM
CN1[C@@H]2CC[C@H]1CC(OC(=O)c1ccccc1Cl)C2 (stereo partly drawn) [DCP-45222 (2), 2-chloro-benzoic acid tropan-3-yl ester]	no effect	no effect	–
CN1[C@@H]2CC[C@H]1CC(OC(=O)c1ccccc1F)C2 (stereo partly drawn) [DCP-45229 (9), 2-fluoro-benzoic acid tropan-3-yl ester]	strongly reversed; also recorded: reverses marginally	no effect	Anomalous activity in dose response for bead ingestion ([1]; in the presence of 1 mM serotonin, at lower doses): very strong stimulatory effects; IC50 (inhibitory concentration 50%) for bead ingestion [1, 3]: impossible to estimate
COC(=O)[C@H]1CC[C@H](C(=O)OC2C[C@H]3CC[C@@H](C2)N3C)CC1 (relative stereo) [DCP-45235 (15), trans-cyclohexane-1,4-dicarboxylic acid methyl ester tropan-3-yl ester]	no effect/reverses	no effect	–
COC(=O)c1ccc(C(=O)OC2C[C@H]3CC[C@@H](C2)N3C)cc1 (stereo partly drawn) [DCP-45236 (16), terephthalic acid methyl ester tropan-3-yl ester]	no effect	no effect	–
CC(Oc1ccccc1)C(=O)OC1C[C@H]2CC[C@@H](C1)N2C (stereo partly drawn) [DCP-45230 (10), 2-phenoxy-propionic acid tropan-3-yl ester]	reverses marginally	inhibits	–
CN1[C@@H]2CC[C@H]1CC(OC(=O)C1CCC1)C2 (stereo partly drawn) [DCP-45234 (14), cyclobutanecarboxylic acid tropan-3-yl ester]	no effect	no effect	–
CN1[C@@H]2CC[C@H]1CC(OC(=O)c1c[nH]c3ccccc13)C2 (stereo partly drawn) [DCP-45240 (20), 1H-indole-3-carboxylic acid tropan-3-yl ester]	reverses markedly	no effect	IC50 ([1]; Caenorhabditis elegans, in the presence of 1 mM serotonin, estimated from log dose response curves (FIG. 2), read-out: IC50 (inhibitory concentration 50%) for bead ingestion): 316 µM
COC(=O)C12C3C4C1C1C2C3C41C(=O)OC1C[C@H]2CC[C@@H](C1)N2C (stereo partly drawn) [DCP-45232 (12), cubane-1,4-dicarboxylic acid methyl ester tropan-3-yl ester]	–	no effect	Effect of 0.325 mM compound on serotonin-stimulated (0.325 mM) bead ingestion ([1]; observed with an unpurified mixture): reverses marginally^1
CN1[C@@H]2CC[C@H]1CC(OC(=O)Cc1ccccc1)C2 (stereo partly drawn) [DCP-45231 (11), phenyl-acetic acid tropan-3-yl ester]	reverses marginally	inhibits	–
CN1[C@@H]2CC[C@H]1CC(OC(=O)c1cc(F)ccc1F)C2 (stereo partly drawn) [DCP-45226 (6), 2,5-difluoro-benzoic acid tropan-3-yl ester]	reverses marginally	no effect	–
COC(=O)c1ccccc1C(=O)OC1C[C@H]2CC[C@@H](C1)N2C (stereo partly drawn) [DCP-45238 (18), phthalic acid methyl ester tropan-3-yl ester]	strongly reversed; also recorded: reverses markedly	no effect	–
